Active and inactive are the calls of the source.
Experiments:
[1] = NIH-3T3 fibroblast cytotoxicity, dose response, cytotoxicity control, cell-based, fluorescence, Alamar Blue, secondary assay (AID 2327); assay type: functional;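 further: NIH-3T3 mouse fibroblasts cultured with fluconazole at 8 µg/mL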
[2] = molecular target: T1, Histone-lysine N-methyltransferase NSD2 (Homo sapiens, UniProt O96028); assay type: biochemical
T1 sequence (O96028 whole entry): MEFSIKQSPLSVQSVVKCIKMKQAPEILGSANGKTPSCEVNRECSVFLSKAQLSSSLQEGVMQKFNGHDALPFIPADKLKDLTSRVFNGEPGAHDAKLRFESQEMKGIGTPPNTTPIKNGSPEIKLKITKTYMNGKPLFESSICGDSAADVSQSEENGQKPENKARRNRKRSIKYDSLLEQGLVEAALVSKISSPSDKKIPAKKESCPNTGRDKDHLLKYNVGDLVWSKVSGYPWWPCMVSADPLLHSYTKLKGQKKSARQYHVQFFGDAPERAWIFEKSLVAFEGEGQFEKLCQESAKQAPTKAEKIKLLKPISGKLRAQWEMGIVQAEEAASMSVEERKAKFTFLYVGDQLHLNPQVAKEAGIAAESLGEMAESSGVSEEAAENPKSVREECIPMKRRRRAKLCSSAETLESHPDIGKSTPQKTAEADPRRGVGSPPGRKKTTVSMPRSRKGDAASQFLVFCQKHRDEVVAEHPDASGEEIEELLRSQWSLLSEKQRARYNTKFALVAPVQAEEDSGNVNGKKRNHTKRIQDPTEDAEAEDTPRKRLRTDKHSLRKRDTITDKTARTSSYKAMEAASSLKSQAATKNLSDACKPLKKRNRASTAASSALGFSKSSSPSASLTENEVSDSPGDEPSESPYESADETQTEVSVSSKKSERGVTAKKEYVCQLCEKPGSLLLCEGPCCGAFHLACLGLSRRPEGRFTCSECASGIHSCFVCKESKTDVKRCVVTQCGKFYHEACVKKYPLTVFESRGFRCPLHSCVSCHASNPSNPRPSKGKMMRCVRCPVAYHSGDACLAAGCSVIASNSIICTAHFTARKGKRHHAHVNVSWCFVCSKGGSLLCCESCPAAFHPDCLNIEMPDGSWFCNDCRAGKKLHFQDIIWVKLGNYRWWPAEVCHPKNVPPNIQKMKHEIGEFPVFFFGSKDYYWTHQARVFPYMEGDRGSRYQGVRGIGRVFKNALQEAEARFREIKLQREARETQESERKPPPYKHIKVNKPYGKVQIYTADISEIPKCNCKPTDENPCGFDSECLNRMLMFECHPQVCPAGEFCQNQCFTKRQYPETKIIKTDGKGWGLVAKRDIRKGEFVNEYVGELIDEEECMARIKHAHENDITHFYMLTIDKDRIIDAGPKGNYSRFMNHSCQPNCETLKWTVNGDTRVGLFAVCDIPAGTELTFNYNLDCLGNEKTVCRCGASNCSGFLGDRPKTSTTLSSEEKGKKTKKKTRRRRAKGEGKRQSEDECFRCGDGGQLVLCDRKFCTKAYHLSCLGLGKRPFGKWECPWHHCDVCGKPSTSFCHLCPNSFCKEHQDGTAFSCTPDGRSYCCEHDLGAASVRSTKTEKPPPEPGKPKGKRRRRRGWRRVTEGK

[3] = molecular target: T2, Neuropeptide Y receptor type 1 (Homo sapiens, UniProt P25929); test: Fluorescence-based counterscreen for potentiators or agonists of NPY-Y2: cell-based high-throughput dose response assay for potentiators or agonists of NPY-Y1.; assay type: functional
T2 sequence (P25929 whole entry): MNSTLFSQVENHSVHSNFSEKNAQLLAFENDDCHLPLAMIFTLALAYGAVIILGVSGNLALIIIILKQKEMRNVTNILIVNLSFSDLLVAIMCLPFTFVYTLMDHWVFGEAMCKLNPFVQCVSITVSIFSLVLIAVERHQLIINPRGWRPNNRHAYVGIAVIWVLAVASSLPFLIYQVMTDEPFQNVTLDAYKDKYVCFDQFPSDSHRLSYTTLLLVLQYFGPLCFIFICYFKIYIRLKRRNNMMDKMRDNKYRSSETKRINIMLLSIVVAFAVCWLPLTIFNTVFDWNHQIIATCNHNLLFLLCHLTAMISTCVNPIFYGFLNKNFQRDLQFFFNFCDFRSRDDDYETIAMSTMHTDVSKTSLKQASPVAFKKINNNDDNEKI

[4] = C. albicans growth with fluconazole, confirmation, fluorescence, retest (AID 2467); assay type: functional, cell-based
HEK293 = test: Fluorescence-based counterscreen for potentiators or agonists of NPY-Y2: cell-based high-throughput dose response assay to identify inhibitors of cyclic nucleotide gated ion channel (CNGC) activity. In this assay, the parental HEK293 cell line transfected with a cyclic-nucleotide gated ion channel (CNGC)-based cAMP sensor is used to measure inhibition of isoproterenol-induced CNGC activity by test compound.; assay type: functional; conditions: Homo sapiens
[5] = molecular target: T2, Neuropeptide Y receptor type 1; test: Fluorescence-based counterscreen for agonists of NPY-Y2: cell-based high-throughput dose response assay for agonists of NPY-Y1.; assay type: functional
[6] = Luminescent dose response cell-based high throughput screening assay for inhibitors of the Janus kinase 2 mutant JAK2V617F. [Related pubchem assays: 1446 (Primary screen.), 1521 (Confirmation assay.), 1486 (Counter screen.)]; assay type: functional
[7] = molecular target: T3, Neuropeptide Y receptor type 2 (Homo sapiens, UniProt P49146); test: Fluorescence-based cell-based high-throughput dose response assay for potentiators or agonists of NPY-Y2. [Related pubchem assays: 1539 (Screening assay (NPY-Y2 potentiators or agonists).), 1703 (Screening assay (CNGC inhibitors).), 1359 (Screening assay (NPY-Y2 potentiators or agonists).), 1304 (Screening assay (NPY-Y1 potentiators or agonists).) …; assay type: functional
T3 sequence (P49146 whole entry): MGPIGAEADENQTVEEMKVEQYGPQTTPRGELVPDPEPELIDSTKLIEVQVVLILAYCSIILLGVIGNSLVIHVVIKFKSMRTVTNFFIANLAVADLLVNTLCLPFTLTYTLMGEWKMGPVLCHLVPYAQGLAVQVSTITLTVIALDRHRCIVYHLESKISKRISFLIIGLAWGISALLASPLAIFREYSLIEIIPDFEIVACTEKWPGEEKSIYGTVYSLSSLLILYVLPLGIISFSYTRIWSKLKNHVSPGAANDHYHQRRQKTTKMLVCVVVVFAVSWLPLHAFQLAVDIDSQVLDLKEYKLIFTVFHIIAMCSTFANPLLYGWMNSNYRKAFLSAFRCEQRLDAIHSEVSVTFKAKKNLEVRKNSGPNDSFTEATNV

[8] = molecular target: T4, Zinc finger protein mex-5 (Caenorhabditis elegans, UniProt Q9XUB2); test: MEX-5/TCR-2 RNA interaction inhibitors, dose response, biochemical, C. elegans, fluorescence polarization (AID 1960)
T4 sequence (Q9XUB2 whole entry): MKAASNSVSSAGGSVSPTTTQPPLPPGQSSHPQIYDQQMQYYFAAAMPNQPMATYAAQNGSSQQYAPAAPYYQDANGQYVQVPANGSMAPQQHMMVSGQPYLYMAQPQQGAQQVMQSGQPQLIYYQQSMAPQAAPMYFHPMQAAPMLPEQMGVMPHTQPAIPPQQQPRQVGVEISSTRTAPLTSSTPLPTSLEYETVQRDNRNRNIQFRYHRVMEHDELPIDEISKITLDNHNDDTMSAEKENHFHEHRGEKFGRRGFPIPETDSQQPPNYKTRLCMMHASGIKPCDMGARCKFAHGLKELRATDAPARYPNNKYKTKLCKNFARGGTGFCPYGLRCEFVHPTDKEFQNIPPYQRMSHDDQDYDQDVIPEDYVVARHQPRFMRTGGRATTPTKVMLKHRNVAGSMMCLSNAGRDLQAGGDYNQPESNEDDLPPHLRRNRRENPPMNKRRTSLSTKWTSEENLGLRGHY

[9] = molecular target: T5, RNA-binding protein pos-1 (Caenorhabditis elegans, UniProt G5EF15); test: inhibitors of POS-1/mex-3 RNA binding, dose response, biochemical, fluorescence polarization (AID 1964);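 further: purified POS-1 fused to maltose binding protein made in E. coli; potency of compounds blocking POS-1 binding to fluorescent RNA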
T5 sequence (G5EF15 whole entry): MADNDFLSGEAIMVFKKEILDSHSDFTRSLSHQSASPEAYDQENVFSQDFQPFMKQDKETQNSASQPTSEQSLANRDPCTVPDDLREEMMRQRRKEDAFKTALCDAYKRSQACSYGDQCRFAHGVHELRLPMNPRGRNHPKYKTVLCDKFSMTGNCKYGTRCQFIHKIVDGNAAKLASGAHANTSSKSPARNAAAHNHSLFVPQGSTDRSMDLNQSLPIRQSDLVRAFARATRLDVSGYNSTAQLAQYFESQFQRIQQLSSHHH

Nonstructural protein 1 = Nonstructural protein 1 (Influenza A virus, UniProt Q194T2); assay type: functional, Influenza A virus (A/California/07/2009(H1N1))
Chain of Nonstructural protein 1 (Q194T2 whole entry): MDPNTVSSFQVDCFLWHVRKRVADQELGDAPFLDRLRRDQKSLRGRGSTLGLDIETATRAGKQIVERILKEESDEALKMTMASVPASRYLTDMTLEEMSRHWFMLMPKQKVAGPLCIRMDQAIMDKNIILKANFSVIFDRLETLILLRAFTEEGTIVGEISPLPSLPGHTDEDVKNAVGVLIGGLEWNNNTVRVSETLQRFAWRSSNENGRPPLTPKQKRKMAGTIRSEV

[10] = molecular target: T3, Neuropeptide Y receptor type 2; test: Fluorescence-based cell-based high-throughput dose response assay for agonists of NPY-Y2. [Related pubchem assays: 1703 (Screening assay (CNGC inhibitors).), 1359 (Screening assay (NPY-Y2 potentiators or agonists).), 1304 (Screening assay (NPY-Y1 potentiators or agonists).), 1710 (Screening assay (NPY-Y2 agonists).), 1791 (Summary AID.)]; assay type: functional

## O=C1/C(=C/c2ccc(O)c(O)c2)SC(=S)N1Nc1ccccc1
[1]
  EC50: 41.6 µM (active)
[2]
  AC50: 1.49 µM (active)
[3]
  EC50: > 35.4 µM (not active)
[4]
  EC50: > 38 µM (not active)
HEK293
  EC50: > 35.4 µM (not active)
[5]
  EC50: > 11.8 µM (not active)
[6]
  IC50: 1.53 µM (active)
[7]
  EC50: 26.6 µM (not active)
[8]
  EC50: 16.2 µM (active)
[9]
  EC50: 39.2 µM (active)
Nonstructural protein 1
  IC50: 31.6 µM (active)
[10]
  EC50: > 35.4 µM (not active)

From ChEMBL document CHEMBL1201862, “PubChem BioAssay data set” (2004)
